From ChEMBL document CHEMBL2203217, “Prohormone-substrate peptide sequence recognition by peptidylglycine α-amidating monooxygenase and its reflection in increased glycolate inhibitor potency” (Bioorg Med Chem Lett, 2012)

What was measured:
[1] = target: T1, Peptidyl-glycine alpha-amidating monooxygenase (Homo sapiens, UniProt P19021); assay: Competitive inhibition of secreted PAM in human DMS53 cell culture medium using as(R)-Tyr-(S)-Val-Gly as substrate after 2 hrs by HPLC analysis; set-up: species or system DMS-53
T1 sequence (P19021 whole entry): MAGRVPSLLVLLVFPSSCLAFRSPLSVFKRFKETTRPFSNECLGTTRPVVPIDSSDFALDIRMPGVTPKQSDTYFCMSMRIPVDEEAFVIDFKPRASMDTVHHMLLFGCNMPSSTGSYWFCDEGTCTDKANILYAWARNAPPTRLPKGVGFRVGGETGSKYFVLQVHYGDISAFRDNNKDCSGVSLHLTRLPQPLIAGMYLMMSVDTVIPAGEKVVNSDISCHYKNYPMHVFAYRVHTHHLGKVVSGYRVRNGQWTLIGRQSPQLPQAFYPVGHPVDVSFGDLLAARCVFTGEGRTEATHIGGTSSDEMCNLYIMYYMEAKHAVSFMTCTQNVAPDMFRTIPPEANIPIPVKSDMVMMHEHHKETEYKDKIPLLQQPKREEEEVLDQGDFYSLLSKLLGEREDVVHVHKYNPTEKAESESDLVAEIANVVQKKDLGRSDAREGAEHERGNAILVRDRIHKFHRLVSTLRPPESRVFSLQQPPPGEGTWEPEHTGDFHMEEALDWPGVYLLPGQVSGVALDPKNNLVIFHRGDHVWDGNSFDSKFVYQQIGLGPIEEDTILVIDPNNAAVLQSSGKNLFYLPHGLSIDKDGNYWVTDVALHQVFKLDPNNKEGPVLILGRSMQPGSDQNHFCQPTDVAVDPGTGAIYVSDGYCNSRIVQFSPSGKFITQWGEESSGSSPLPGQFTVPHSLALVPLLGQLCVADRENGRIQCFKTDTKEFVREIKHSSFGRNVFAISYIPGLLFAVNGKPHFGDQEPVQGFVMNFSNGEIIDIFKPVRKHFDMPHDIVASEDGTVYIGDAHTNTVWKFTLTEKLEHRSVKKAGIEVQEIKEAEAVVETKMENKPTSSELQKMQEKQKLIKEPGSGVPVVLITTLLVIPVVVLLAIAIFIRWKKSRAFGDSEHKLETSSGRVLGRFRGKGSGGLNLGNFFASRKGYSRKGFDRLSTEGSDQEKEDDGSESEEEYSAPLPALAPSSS

[2] = target: T1, Peptidyl-glycine alpha-amidating monooxygenase; assay: Competitive inhibition of PAM in human DMS53 cells using as(R)-Tyr-(S)-Val-Gly as substrate after 2 hrs by HPLC analysis; type: cell-based, DMS-53

Structure (SMILES) | IC50 [1] | IC50 [2]
O=C(O)COC(=O)[C@@H]1CCCN1 | 500 µM | 600 µM
CC(=O)N[C@@H](CC(C)C)C(=O)NCC(=O)OCC(=O)O | 200 µM | 120 µM
